Measurements reported in patent US6548494B1, “Tricyclic inhibitors of poly(ADP-ribose) polymerases” (Agouron Pharmaceuticals, Inc., priority 1999, dated 2003).
pKi: −log10 of the molar value. Where “and” joins values, the source holds several entries; their conditions need not be identical. Equal entries are not always repeated. Structures can show the parent of a compound that is named as a salt.

Target: purified PARP protein (Homo sapiens, UniProt P09874)
Experiment: PARP enzyme inhibition assay
Assay type: biochemical
Conditions: 20 nM purified PARP (5 nM for tight-binding inhibitors), 500 μM NAD+, 25° C.; several values in one cell = repeat determinations; read-out: Inhibition Constant Ki

Chain of purified PARP protein (P09874 whole entry): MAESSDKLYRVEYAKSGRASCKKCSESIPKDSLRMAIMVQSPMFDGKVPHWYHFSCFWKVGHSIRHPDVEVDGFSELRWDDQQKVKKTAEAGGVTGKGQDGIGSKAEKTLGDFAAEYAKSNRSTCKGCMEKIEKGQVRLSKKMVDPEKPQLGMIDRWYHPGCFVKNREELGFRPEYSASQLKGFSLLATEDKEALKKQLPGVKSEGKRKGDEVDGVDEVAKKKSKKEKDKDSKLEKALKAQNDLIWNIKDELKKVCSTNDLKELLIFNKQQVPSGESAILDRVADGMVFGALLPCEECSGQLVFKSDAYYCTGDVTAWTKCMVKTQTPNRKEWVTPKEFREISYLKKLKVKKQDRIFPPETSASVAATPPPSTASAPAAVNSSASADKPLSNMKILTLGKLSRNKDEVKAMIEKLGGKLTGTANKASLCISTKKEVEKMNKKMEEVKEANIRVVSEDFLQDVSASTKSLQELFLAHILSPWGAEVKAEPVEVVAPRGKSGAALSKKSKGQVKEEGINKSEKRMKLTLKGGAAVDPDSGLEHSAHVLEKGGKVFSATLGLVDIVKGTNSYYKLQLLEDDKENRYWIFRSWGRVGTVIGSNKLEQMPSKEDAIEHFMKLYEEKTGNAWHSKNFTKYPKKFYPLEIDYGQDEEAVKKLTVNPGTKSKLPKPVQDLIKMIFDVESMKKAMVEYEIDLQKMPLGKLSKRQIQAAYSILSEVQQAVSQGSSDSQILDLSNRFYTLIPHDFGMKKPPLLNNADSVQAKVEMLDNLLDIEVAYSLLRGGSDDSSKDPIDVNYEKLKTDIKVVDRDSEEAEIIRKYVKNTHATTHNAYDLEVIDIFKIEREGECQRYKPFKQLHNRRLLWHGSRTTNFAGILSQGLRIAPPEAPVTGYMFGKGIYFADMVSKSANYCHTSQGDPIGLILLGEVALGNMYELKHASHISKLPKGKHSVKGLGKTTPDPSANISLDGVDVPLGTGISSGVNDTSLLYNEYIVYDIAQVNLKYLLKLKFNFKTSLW

Row | pKi | Compound
1 | 7.96 | CC(C)(C)OC(=O)NC1CCN(Cc2ccc(-c3nc4cccc5c4n3CCNC5=O)cc2)C1 (centres unmarked) [Example 219, {1-[4-(6-oxo-6,7,8,9-Tetrahydro-2,7,9a-triaza-benzo[cd]azulen-1-yl)-benzyl]-pyrrolidin-3-yl}-carbamic Acid tert-Butyl Ester]
2 | 8.40 | O=C1NCCn2c(-c3ccc(Cn4cccc4)cc3)nc3cccc1c32 [Example 220, 1-(4-Pyrrol-1-ylmethyl-phenyl)-8,9-dihydro-7H-2,7,9a-triaza-benzo[cd]azulen-6-one]
3 | 8.30 | C[C@H]1Cn2c(-c3ccc(CN(C)C)cc3)nc3cccc(c32)C(=O)N1 [Example 221, (S)-1-(4-Dimethylaminomethyl-phenyl)-8-methyl-8,9-dihydro-7H-2,7,9a-triaza-benzo[cd]azulen-6-one]
4 | 8.00 | C[C@H]1Cn2c(-c3ccc(CO)cc3)nc3cccc(c32)C(=O)N1 [Example 221a, (S)-1-(4-Hydroxymethyl-phenyl)-8-methyl-8,9-dihydro-7H-2,7,9a-triaza-benzo[cd]azulen-6-one]
5 | 8.70 and 8.64 and 8.46 | CNCc1ccc(-c2nc3cccc4c3n2C[C@H](C)NC4=O)cc1 [Example 222, (S)-8-Methyl-1-(4-methylaminomethyl-phenyl)-8,9-dihydro-7H-2,7,9a-triaza-benzo[cd]azulen-6-one]
6 | 8.66 | N#Cc1ccc(-c2nc3cccc4c3n2CCNC4=O)cc1 [Example 227, 4-(6-oxo-6,7,8,9-Tetrahydro-2,7,9a-triaza-benzo[cd]azulen-1-y)-benzonitrile]
7 | 8.34 | CC(C)CC(O)c1ccc(-c2nc3cccc4c3n2CCNC4=O)cc1 (centres unmarked) [Example 228, 1-[4-(1-Hydroxy-3-methyl-butyl)-phenyl]-8,9-dihydro-7H-2,7,9a-triaza-benzo[cd]azulen-6-one]
8 | 8.28 and 8.17 | CC(C)CC(c1ccc(-c2nc3cccc4c3n2CCNC4=O)cc1)N1CC=CC1 (centres unmarked) [Example 229, 1-{4-[1-(2,5-Dihydro-pyrrol-1-yl)-3-methyl-butyl]-phenyl}-8,9-dihydro-7H-2,7,9a-triaza-benzo[cd]azulen-6-one]
9 | 8.28 | CC(C)CC(c1ccc(-c2nc3cccc4c3n2CCNC4=O)cc1)N1CCCC1 (centres unmarked) [Example 230, 1-[4-(3-Methyl-1-pyrrolidin-1-yl-butyl)-phenyl]-8,9-dihydro-7H-2,7,9a-triaza-benzo[cd]azulen-6-one]
10 | 8.16 | CC(C)CC(c1ccc(-c2nc3cccc4c3n2CCNC4=O)cc1)N(C)C (centres unmarked) [Example 231, 1-[4-(Dimethylamino-methyl-butyl)-phenyl]-8,9-dihydro-7H-2,7,9a-triaza-benzo[cd]azulen-6-one]
11 | 8.06 | C[C@H]1Cn2c(-c3ccc(Cn4cccc4)cc3)nc3cccc(c32)C(=O)N1 [Example 234, (S)-8-Methyl-1-(4-pyrrol-1-ylmethyl-phenyl)-8,9-dihydro-7H -2,7,9a-triaza-benzo[cd]azulen-6-one]
12 | 6.95 | C[C@@H]1Cn2c(-c3ccc(Cl)cc3)nc3cccc(c32)C(=O)N1 [Example 236, (R)-1-(4-Chloro-phenyl)-8-methyl-8,9-dihydro-7H-2,7,9a-triaza-benzo[cd]azulen-6-one]
13 | 8.30 and 8.22 | O=C1N[C@@H](CO)Cn2c(-c3ccc(Cl)cc3)nc3cccc1c32 [Example 237, (R)-1-(4-Chloro-phenyl)-8-hydroxymethyl-8,9-dihydro-7H-2,7,9a-triaza-benzo[cd]azulen-6-one]
14 | 7.52 | O=C1N[C@@H](COCc2ccccc2)Cn2c(-c3ccc(Cl)cc3)nc3cccc1c32 [Example 237b, (R)-8-Benzyloxymethyl-1-(4-chloro-phenyl)-8,9-dihydro-7H-2,7,9a-triaza-benzo[cd]azulen-6-one]
15 | 8.14 | CN(C)Cc1ccc(-c2nc3cccc4c3n2C[C@H](CO)NC4=O)cc1 [Example 238, (R)-1-(4-Dimethylaminomethyl-phenyl)-8-hydroxymethyl-8,9-dihydro-7H-2,7,9a-triaza-benzo[cd]azulen-6-one]
16 | 7.51 | O=C1N[C@@H](COCc2ccccc2)Cn2c(-c3ccc(CO)cc3)nc3cccc1c32 [Example 238a, (R)-8-Benzyloxymethyl-1-(4-hydroxymethyl-phenyl)-8,9-dihydro-7H-2,7,9a-triaza-benzo[cd]azulen-6-one]
17 | 8.11 | CN(CCc1ccccc1)Cc1ccc(-c2nc3cccc4c3n2C[C@H](CO)NC4=O)cc1 [Example 239, (R)-8-Hydroxymethyl-1-{4-[(methyl-phenethyl-amino)-methyl]-phenyl}-8,9-dihydro-7H-2,7,9a-triaza-benzo[cd]azulen-6-one]
18 | 8.38 and 8.35 | CNCc1ccc(-c2nc3cccc4c3n2C[C@H](CO)NC4=O)cc1 [Example 240, (R)-8-Hydroxymethyl-1-(4-methylaminomethyl-phenyl)-8,9-dihydro-7H-2,7,9a-triaza-benzo[cd]azulen-6-one]
19 | 8.17 | O=C1N[C@@H](CO)Cn2c(-c3ccc(CN4CCCC4)cc3)nc3cccc1c32 [Example 241, (R)-8-Hydroxymethyl-1-(4-pyrrolidin-1-ylmethyl-phenyl)-8,9-dihydro-7H-2,7,9a-triaza-benzo[cd]azulen-6-one]
20 | 8.47 | N#CCc1ccc(-c2nc3cccc4c3n2CCNC4=O)cc1 [Example 242, [4-(6-oxo-6,7,8,9-Tetrahydro-2,7,9a-triaza-benzo[cd]azulen-1-yl)-phenyl]-acetonitrile]
21 | 7.85 | Cc1ccc(C)n1Cc1ccc(-c2nc3cccc4c3n2CCNC4=O)cc1 [Example 244, 1-[4-(2,5-Dimethyl-pyrrol-1-ylmethyl)-phenyl]-8,9-dihydro-7H-2,7,9a-triaza-benzo[cd]azulen-6-one]
22 | 8.28 | CC(O)c1ccc(-c2nc3cccc4c3n2CCNC4=O)cc1 (centres unmarked) [Example 245a, 1-[4-(1-Hydroxy-ethyl)-phenyl]-8,9-dihydro-7H-2,7,9a-triaza-benzo[cd]azulen-6-one]
23 | 8.27 | O=C1NCCn2c(-c3ccc(C(Cc4ccccc4)N4CCCC4)cc3)nc3cccc1c32 (centres unmarked) [Example 247, 1-[4-(2-Phenyl-1-pyrrolidin-1-yl-ethyl)-phenyl]-8,9-dihydro-7H-2,7,9a-triaza-benzo[cd]azulen-6-one]
24 | 8.00 | O=C1NCCn2c(-c3ccc(C(O)Cc4ccccc4)cc3)nc3cccc1c32 (centres unmarked) [Example 247a, 1-[4-(1-Hydroxy-2-phenyl-ethyl)-phenyl]-8,9-dihydro-7H-2,7,9a-triaza-benzo[cd]azulen-6-one]
25 | 7.80 | O=C1NCCn2c(-c3ccc(/C=C/c4ccccc4)cc3)nc3cccc1c32 [Example 247c, 1-[4-((E)-Styryl)-phenyl]-8,9-dihydro-7H-2,7,9a-triaza-benzo[cd]azulen-6-one]

System: not given
Experiment: not given
Conditions: not given

Row | melting point | Compound
26 | 268 to 270 °C | O=Cc1c(-c2ccc(F)cc2)n2c3c(cccc13)C(=O)NCC2
27 | 272 to 274 °C | N/N=C(\N)c1c(-c2ccc(F)cc2)n2c3c(cccc13)C(=O)NCC2 (as salt: hydrochloride) [Example 156, 7-Formyl-6-(4-fluorophenyl)-1-oxo-3,4-dihydro-[1,4]diazepino[6,7,1-hi]indole Amidrazone Hydrochloride]
28 | 126 °C (dec.) | CN1CCn2c(-c3cccc4ccccc34)nc3cccc(c32)C1=O [Example 27, 7-Methyl-1-naphthalen-1-yl-8,9-dihydro-7H-2,7,9a-triaza-benzo[cd]azulen-6-one]
29 | 247 °C (dec.) | O=C1NCCn2c(-c3cccc(C4OCCCO4)c3)nc3cccc1c32 [Example 30, 1-(3-[1,3]-Dioxan-2-yl-phenyl)-8,9-dihydro-7H-2,7,9a-triaza-benzo[cd]azulen-6-one]
